PubChem BioAssay AID330 (DTP/NCI, 2004)
Several values for one entry are separate records, joined by “and”; a condition that tells them apart may be missing. Equal values may be shown once. Toxic doses and inconclusive results are not listed. The calls were made as follows: active = survival T/C of 150% or more; inactive = T/C below 125% in these data.

Tested on: P388 leukemia ip, CD2F1 mice, survival T/C
Assay: NCI In Vivo Anticancer Drug Screen. Data for tumor model P388 Leukemia (intraperitoneal) in CD2F1 (CDF1) mice
Settings: endpoint: median survival time, higher = longer survival
Outline: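 Mice carrying the transplanted tumor received test compound or vehicle. Survival was recorded in each group, and the value is the treated-group measurement divided by that of the vehicle-treated control group.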

[1] = dose: 50.0 mg/kg/injection, schedule: Q01DX009 (ip), vehicle: saline with Tween-80
[2] = dose: 100.0 mg/kg/injection, schedule: Q01DX009 (ip), vehicle: saline with Tween-80
[3] = dose: 200.0 mg/kg/injection, schedule: Q01DX009 (ip), vehicle: saline with Tween-80
[4] = dose: 50.0 mg/kg/injection, schedule: Q01DX009 (ip), vehicle: saline
[5] = dose: 100.0 mg/kg/injection, schedule: Q01DX009 (ip), vehicle: saline
[6] = dose: 200.0 mg/kg/injection, schedule: Q01DX009 (ip), vehicle: saline
[7] = dose: 50.0 mg/kg/injection, schedule: Q01DX001 (ip), vehicle: saline with Tween-80
[8] = dose: 100.0 mg/kg/injection, schedule: Q01DX001 (ip), vehicle: saline with Tween-80
[9] = dose: 50.0 mg/kg/injection, schedule: Q01DX005 (ip), vehicle: saline with Tween-80
[10] = dose: 100.0 mg/kg/injection, schedule: Q01DX005 (ip), vehicle: saline with Tween-80
[11] = dose: 200.0 mg/kg/injection, schedule: Q01DX005 (ip), vehicle: saline with Tween-80
[12] = dose: 60.0 mg/kg/injection, schedule: Q01DX005 (ip), vehicle: Klucel (hydroxypropylcellulose) (HPC)
[13] = dose: 120.0 mg/kg/injection, schedule: Q01DX005 (ip), vehicle: Klucel (hydroxypropylcellulose) (HPC)
[14] = dose: 60.0 mg/kg/injection, schedule: Q01DX005 (ip), vehicle: saline with Tween-80
[15] = dose: 120.0 mg/kg/injection, schedule: Q01DX005 (ip), vehicle: saline with Tween-80
[16] = dose: 240.0 mg/kg/injection, schedule: Q01DX005 (ip), vehicle: saline with Tween-80
[17] = dose: 7.5 mg/kg/injection, schedule: Q01DX005 (ip), vehicle: saline
[18] = dose: 15.0 mg/kg/injection, schedule: Q01DX005 (ip), vehicle: saline
[19] = dose: 50.0 mg/kg/injection, schedule: Q01DX009 (ip), vehicle: Klucel (hydroxypropylcellulose) (HPC)
[20] = dose: 100.0 mg/kg/injection, schedule: Q01DX009 (ip), vehicle: Klucel (hydroxypropylcellulose) (HPC)
[21] = dose: 200.0 mg/kg/injection, schedule: Q01DX009 (ip), vehicle: Klucel (hydroxypropylcellulose) (HPC)

Measured: T/C

c1nc(N2CCOCC2)c2[nH]cnc2n1
inactive: dose: 50.0 mg/kg/injection, schedule: Q01DX005 (ip), vehicle: Klucel (hydroxypropylcellulose) (HPC) 99 % of control and 91 % of control | dose: 100.0 mg/kg/injection, schedule: Q01DX005 (ip), vehicle: Klucel (hydroxypropylcellulose) (HPC) 88 % of control | dose: 200.0 mg/kg/injection, schedule: Q01DX005 (ip), vehicle: Klucel (hydroxypropylcellulose) (HPC) 91 % of control

CN1CCC(c2ccccc2)(c2ccccc2)C(=O)C1
inactive: [1] 100 % of control and 104 % of control | [2] 109 % of control and 111 % of control and 114 % of control | [3] 118 % of control and 123 % of control

CCCCCCCCOC(=O)c1ccc(I)cc1
inactive: [1] 97 % of control | [2] 101 % of control | [3] 97 % of control

C[SiH](C)c1ccc(Cl)cc1
inactive: [4] 99 % of control | [5] 102 % of control | [6] 100 % of control

NC(=O)CCSC1=CC(=O)c2ccccc2C1=O
inactive: dose: 3.13 mg/kg/injection, schedule: Q04DX003 (ip), vehicle: saline with Tween-80 103 % of control | dose: 6.25 mg/kg/injection, schedule: Q04DX003 (ip), vehicle: saline with Tween-80 110 % of control | dose: 12.5 mg/kg/injection, schedule: Q04DX003 (ip), vehicle: saline with Tween-80 103 % of control and 110 % of control

CCN1CCc2cccc3c2C1c1ccccc1CC3 (centres undefined)
inactive: [7] 100 % of control | [8] 101 % of control

CC(C)(C)N=C(CCN1CCOCC1)Nc1ccccc1Cl
inactive: [1] 113 % of control | [2] 106 % of control | [3] 109 % of control

CC(C)C(NC(=O)C(CCCCN)N(C(=O)OCc1ccccc1)C(=O)OCc1ccccc1)C(=O)O (centres undefined)
inactive: [9] 100 % of control | [10] 93 % of control | [11] 92 % of control

O/N=C/c1ccccn1
inactive: dose: 60.0 mg/kg/injection, schedule: Q01DX005 (ip), vehicle: saline 92 % of control | dose: 120.0 mg/kg/injection, schedule: Q01DX005 (ip), vehicle: saline 101 % of control | dose: 240.0 mg/kg/injection, schedule: Q01DX005 (ip), vehicle: saline 100 % of control

c1ccc2c(SCCSc3c4ccccc4nc4ccccc34)c3ccccc3nc2c1
inactive: [12] 90 % of control | [13] 96 % of control

CC1CCCC(C)N1C1=NCCO1 (centres undefined)
inactive: dose: 5.0 mg/kg/injection, schedule: Q04DX003 (ip), vehicle: saline 95 % of control | dose: 10.0 mg/kg/injection, schedule: Q04DX003 (ip), vehicle: saline 100 % of control | dose: 20.0 mg/kg/injection, schedule: Q04DX003 (ip), vehicle: saline 95 % of control

Cc1cc(=O)oc2c(CNC(C(=O)O)C(C)C)c(O)ccc12 (centres undefined)
inactive: [12] 91 % of control | [13] 91 % of control

O=c1[nH]cc(F)c(=O)[nH]1.[Tl]
inactive: dose: 0.78 mg/kg/injection, schedule: Q01DX009 (ip), vehicle: Klucel (hydroxypropylcellulose) (HPC) 99 % of control | dose: 1.56 mg/kg/injection, schedule: Q01DX009 (ip), vehicle: Klucel (hydroxypropylcellulose) (HPC) 103 % of control | dose: 3.13 mg/kg/injection, schedule: Q01DX009 (ip), vehicle: Klucel (hydroxypropylcellulose) (HPC) 115 % of control

O=C(NC(Cc1ccccc1)C(=O)CCC(=O)N1CCCC1C(=O)O)c1ccccc1 (centres undefined)
inactive: dose: 50.0 mg/kg/injection, schedule: Q04DX002 (ip), vehicle: saline with Tween-80 103 % of control | dose: 100.0 mg/kg/injection, schedule: Q04DX002 (ip), vehicle: saline with Tween-80 101 % of control | dose: 200.0 mg/kg/injection, schedule: Q04DX002 (ip), vehicle: saline with Tween-80 101 % of control | dose: 400.0 mg/kg/injection, schedule: Q04DX002 (ip), vehicle: saline with Tween-80 101 % of control

O=C1CCC(Cc2ccc(Cl)cc2Cl)C(=O)N1 (centres undefined)
inactive: [14] 96 % of control | [15] 94 % of control | [16] 87 % of control

Nc1n[nH]c(=O)c2cccnc12
inactive: [9] 97 % of control | [10] 99 % of control | [11] 101 % of control

Nc1ccc(C(=O)Nc2ccc(C(=O)Nc3ccc4cc(S(=O)(=O)O)cc(S(=O)(=O)O)c4c3)cc2)cc1
inactive: dose: 50.0 mg/kg/injection, schedule: Q01DX005 (ip), vehicle: saline 103 % of control | dose: 100.0 mg/kg/injection, schedule: Q01DX005 (ip), vehicle: saline 103 % of control | dose: 200.0 mg/kg/injection, schedule: Q01DX005 (ip), vehicle: saline 103 % of control

Nc1nc2c(cnn2C2CCCO2)c(=O)[nH]1 (centres undefined)
inactive: [8] 100 % of control | dose: 200.0 mg/kg/injection, schedule: Q01DX001 (ip), vehicle: saline with Tween-80 106 % of control | dose: 400.0 mg/kg/injection, schedule: Q01DX001 (ip), vehicle: saline with Tween-80 96 % of control

CSc1nc2ccc(N)cc2s1
inactive: dose: 100.0 mg/kg/injection, schedule: Q04DX003 (ip), vehicle: saline with Tween-80 97 % of control | dose: 200.0 mg/kg/injection, schedule: Q04DX003 (ip), vehicle: saline with Tween-80 99 % of control | dose: 400.0 mg/kg/injection, schedule: Q04DX003 (ip), vehicle: saline with Tween-80 93 % of control

CNc1ccccc1Br
inactive: [9] 100 % of control | [10] 100 % of control | [11] 100 % of control

C1OC2OCC1O2
inactive: [1] 87 % of control | [2] 93 % of control | [3] 105 % of control

NNc1nc(N2CCCCC2)ns1
inactive: dose: 2.5 mg/kg/injection, schedule: Q01DX009 (ip), vehicle: saline with Tween-80 98 % of control | dose: 5.0 mg/kg/injection, schedule: Q01DX009 (ip), vehicle: saline with Tween-80 110 % of control | dose: 10.0 mg/kg/injection, schedule: Q01DX009 (ip), vehicle: saline with Tween-80 120 % of control

COC1=C(OC)C(=O)C(CO)=CC1=O
inactive: [17] 104 % of control | [18] 87 % of control

CC(=O)NNc1cccc(Cl)n1
inactive: dose: 100.0 mg/kg/injection, schedule: Q01DX001 (ip), vehicle: Klucel (hydroxypropylcellulose) (HPC) 98 % of control | dose: 200.0 mg/kg/injection, schedule: Q01DX001 (ip), vehicle: Klucel (hydroxypropylcellulose) (HPC) 96 % of control | dose: 400.0 mg/kg/injection, schedule: Q01DX001 (ip), vehicle: Klucel (hydroxypropylcellulose) (HPC) 97 % of control

NC(=O)c1cccn1Cc1ccccc1SSc1ccccc1Cn1cccc1C(N)=O
inactive: [14] 91 % of control | [15] 87 % of control

O=C(/C=C/c1ccc(OCc2ccccc2)cc1)c1ccccc1Cl
inactive: [1] 110 % of control and 95 % of control | [2] 110 % of control and 91 % of control | [3] 100 % of control | dose: 400.0 mg/kg/injection, schedule: Q01DX009 (ip), vehicle: saline with Tween-80 100 % of control

O=C1Nc2ccccc2C(O)(c2ccccc2)N1Cc1ccccc1 (centres undefined)
inactive: dose: 6.25 mg/kg/injection, schedule: Q01DX009 (ip), vehicle: saline with Tween-80 91 % of control | dose: 12.5 mg/kg/injection, schedule: Q01DX009 (ip), vehicle: saline with Tween-80 100 % of control | dose: 25.0 mg/kg/injection, schedule: Q01DX009 (ip), vehicle: saline with Tween-80 88 % of control | [6] 87 % of control

CC(=O)/C(=C\c1c(Cl)cccc1Cl)C(=O)CCN(C)C
inactive: [17] 120 % of control | [18] 117 % of control | dose: 30.0 mg/kg/injection, schedule: Q01DX005 (ip), vehicle: saline 117 % of control

CN(C)CCOC(=O)C(C)(C)Sc1ccc(Cl)cc1
inactive: [14] 107 % of control | [15] 92 % of control | [16] 98 % of control

CCOC(=O)Nc1nn(-c2ccc3ccccc3n2)c(=O)[nH]1
inactive: [19] 113 % of control | [20] 109 % of control | [21] 118 % of control

C[n+]1ccn(Cc2ccc([N+](=O)[O-])cc2)c1
inactive: [4] 115 % of control | [5] 102 % of control

Nc1nnc2cc(F)ccc2n1
inactive: [19] 104 % of control | [4] 123 % of control | [20] 108 % of control | [5] 108 % of control | [21] 98 % of control | [6] 113 % of control

CCN(CC)CCCNc1cc(C)c2cc(OC)ccc2n1
inactive: dose: 25.0 mg/kg/injection, schedule: Q01DX001 (ip), vehicle: saline with Tween-80 99 % of control | [7] 97 % of control | [8] 90 % of control
